{
  "source": "paper PMC2658777",
  "about": "“Prodrugs of Fluoro-Substituted Benzoates of EGC as Tumor Cellular Proteasome Inhibitors and Apoptosis Inducers” (International Journal of Molecular Sciences, 2008)",
  "key": {"[1]": {"molecular_target": "T1, purified rabbit 20S proteasome (chymotrypsin-like activity) (Oryctolagus cuniculus, UniProt G1T4Q9)", "T1 construct": "purchased Boston Biochem", "T1 sequence (G1T4Q9 1-263)": "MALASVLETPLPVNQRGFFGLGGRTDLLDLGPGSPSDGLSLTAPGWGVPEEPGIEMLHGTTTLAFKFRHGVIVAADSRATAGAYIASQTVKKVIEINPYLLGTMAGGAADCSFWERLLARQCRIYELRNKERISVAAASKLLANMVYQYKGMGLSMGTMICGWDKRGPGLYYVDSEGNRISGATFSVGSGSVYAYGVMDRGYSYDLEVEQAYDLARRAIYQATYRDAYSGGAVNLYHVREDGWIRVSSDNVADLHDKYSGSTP", "experiment": "Inhibition of the chymotrypsin-like activity of a purified 20S proteasome", "format": "biochemical", "conditions": "fluorogenic substrate, 2 h incubation", "description": "We first tested the effect of these compounds on inhibiting the chymotrypsin-like activity of a purified 20S proteasome using purified EGCG as a positive control. Each of these compounds was incubated with a purified rabbit 20S proteasome and a fluorogenic substrate for chymotrypsin-like activity for 2 h. The half-maximal inhibitory concentration or IC50 was then determined.\nHighly purified (-)-EGCG and dimethyl sulfoxide (DMSO) were purchased from Sigma-Aldrich. Purified 20S proteasome (rabbit) was purchased from Boston Biochem. Fluorogenic peptide substrate Suc-Leu-Leu-Val-Tyr-AMC (for the proteasomal chymotrypsin-like activity) was obtained from Calbiochem. Polyclonal antibody to ubiquitin, IκB-α̣ monoclonal anti-actin, anti-goat, anti-rabbit, and anti-mouse IgG-horseradish peroxidase were obtained from Santa Cruz Biotechnology Inc. Mouse monoclonal anitbody against human poly(ADP-ribose) polymerase (PARP) was purchased from Biomol International LP (Plymouth Meeting, PA). RPMI 1640, Penicillin and streptomycin were purchased from Invitrogen."}, "[2]": {"test_system": "Human leukemia Jurkat T cells", "experiment": "Trypan blue dye exclusion cell death assay", "format": "cell-based", "conditions": "50 μM, 24 h", "description": "We first tested whether these Pro-F-EGCGs could induce cell death in tumor cells. Human leukemia Jurkat T cells were treated with 50 μM of each analog for 24 h, followed by Trypan-blue exclusion assay. Blue cells and cells with apoptosis-associated morphological changes (shrunken, blebbing, etc) were scored as dead cells. Pro-EGCG (1) and DMSO were used as controls.\nThe Trypan blue dye exclusion assay was performed by mixing 20 μL of cell suspension with 20 μL of 0.4% Trypan blue dye before injecting into a hemocytometer and counting. The number of cells that absorbed the dye and those that exclude the dye were counted, from which percentage of nonviable cell number over the total cell number was calculated.\n(§1) Human leukemia Jurkat T cells were cultured in RPMI 1640 medium supplemented with 10% fetal calf serum, 100 units/mL of penicillin, and 100 μg/mL of streptomycin. Cells were maintained at 37 °C in a humidified incubator with an atmosphere of 5% CO2. Jurkat T cells were treated by selected compounds at various concentrations for indicated hours (see figure legends for details), and a whole-cell extract was then prepared as described previously. Briefly, cells were harvested, washed with PBS, and homogenized in a lysis buffer (50 mM, Tris-HCl, pH 8.0, 150 mM NaCl, 0.5% NP-40, 0.5 mM penylmethylsulfonyl fluoride, and 0.5 mM dithiothreitol) at 4 °C. Afterwards, the lysates were centrifuged at 12,000 × g for 15 min at 4 °C and the supernatants collected as whole-cell extracts."}, "[3]": {"design": "method as in PMID 17477351", "conditions": "in vitro; cited from earlier work"}, "[4]": {"test_system": "human breast cancer xenografts", "design": "method as in PMID 17483343", "conditions": "human breast cancer xenografts in mice; cited from earlier work"}, "[5]": {"test_system": "Jurkat T cells", "experiment": "Western blot of ubiquitinated IκB-α (p56), ubiquitinated proteins and PARP cleavage", "format": "cell-based, human", "conditions": "for p56 IκB-α (ubiquitinated form), Western blot: 50 μM; for accumulation of ubiquitinated proteins, Western blot: Jurkat T cells, 10, 25 or 50 μM", "description": "(§2) To study whether the induction of cell death by Pro-F-EGCG4 was due to its proteasome-inhibitory and apoptosis-inducing activities, Jurkat T cells were treated with 50 μM of Pro-F-EGCG4 and Pro-EGCG (1) as a control for 4, 8 and 24 h, followed by measurement of proteasome inhibition and apoptotic cell death. […] Previously, we reported that the p56 is an ubiquitinated form of IκB-α protein as a marker of proteasome inhibition, as verified by the immunoprecipitation-Western blot assay. […] Consistently, PARP cleavage fragment p85 was detected in Jurkat T cells treated with Pro-F-EGCG4 in a time-dependent manner (Fig. 3B). A p65 PARP fragment was also detected in cells treated with Pro-F-EGCG4 (Fig. 3B), indicating calpain activation occurred as well [14]. Apoptotic morphological changes were observed after 4 hours of treatment with Pro-F-EGCG4 (data not shown).\nas §1\nAnalysis of IκB-α, PARP, and ubiquitinated proteins was performed using monoclonal or polyclonal antibodies, according to previously reported protocols."}, "[6]": {"test_system": "proteasomal chymotrypsin (CT)-like activity in Jurkat T cells", "experiment": "Cellular proteasomal chymotrypsin-like activity in extracts of treated cells", "format": "cell-based, human", "description": "as §2\nWe then performed a dose-dependent experiment. Jurkat T cells were treated with Pro-F-EGCG4 or Pro-EGCG (1) at 10, 25, or 50 μM for 24 h, followed by measurement of proteasome inhibition and apoptotic cell death.\nas §1\nHuman leukemia Jurkat T cells were treated with each compound at indicated concentration for indicated hours (see the figure legends for details), harvested, and lysed as described previously. Whole cell extracts were prepared as detailed in section 3.4, aliquoted and kept at −80 °C. One of the aliquots was used for determination of protein concentration. After that, whole cell extracts (10 μg) from each preparation were incubated with Suc-Leu-Leu-Val-Tyr-AMC (20 μM) fluorogenic substrate at 37°C in 100 μl of assay buffer (50 mM Tris-HCL, pH 7.5) for 2 h. After incubation, production of hydrolyzed 7-amino-4-methylcoumarin (AMC) groups was measured using a Victor^3 Multilabel Counter with an excitation filter of 380 nm and an emission filter of 460 nm (PerkinElmer, Boston, MA, USA)."}, "[7]": {"test_system": "caspase-3/7 activities in Jurkat T cells", "experiment": "Caspase-3/7 activity in extracts of treated cells", "format": "cell-based, human", "conditions": "50 μM, 24 h (dose-dependent experiment)", "description": "as §2\nHuman leukemia Jurkat T cells were cultured in RPMI 1640 medium supplemented with 10% fetal calf serum, 100 units/mL of penicillin, and 100 μg/mL of streptomycin. Cells were maintained at 37 °C in a humidified incubator with an atmosphere of 5% CO2. […]\nCells were treated with each compound at indicated concentration for indicated hours, harvested, and lysed as described previously. Ac-DEVD-AMC (40 μM) was then incubated with the prepared cell lysates for 2 h and the caspase-3 activity was measured as described previously."}, "[8]": {"conditions": "Jurkat T cells, 50 μM, 4, 8 and 24 h"}, "[9]": {"conditions": "Jurkat T cells, 10, 25 or 50 μM, 24 h"}},
  "data": [
    {"smiles": "O=C(O[C@@H]1Cc2c(O)cc(O)cc2O[C@@H]1c1cc(O)c(O)c(O)c1)c1cc(O)c(O)c(O)c1", "note": "[(-)-EGCG, (-)-epigallocatechin-3-gallate, reference compound]", "values": [
      {"measurement": "IC50", "setting": "[1]", "result": 680, "unit": "nM"}
    ]},
    {"smiles": "CC(=O)Oc1cc(OC(C)=O)c2c(c1)O[C@H](c1cc(OC(C)=O)c(OC(C)=O)c(OC(C)=O)c1)[C@H](OC(=O)c1cc(OC(C)=O)c(OC(C)=O)c(OC(C)=O)c1)C2", "note": "[Pro-EGCG (1), reference compound]", "values": [
      {"measurement": "cell death (dead cells over total cell population)", "setting": "[2]", "result": "~ 70%"},
      {"measurement": "cellular permeability and stability compared with natural EGCG", "setting": "[3]", "result": "significantly enhanced"},
      {"measurement": "anti-tumor activity compared with natural EGCG", "setting": "[4]", "result": "greater anti-tumor activity"},
      {"measurement": "p56 IκB-α (ubiquitinated form), Western blot", "setting": "[5]; Jurkat T cells, all the time points (4, 8, 24 h)", "result": "increased level"},
      {"measurement": "accumulation of ubiquitinated proteins, Western blot", "setting": "[5]; 24 h", "result": "accumulation of ubiquitinated proteins"},
      {"measurement": "proteasomal CT-like activity in treated cells", "setting": "[6]; [8]", "result": "decrease in the level of the proteasomal CT-like activity in a time-dependent manner"},
      {"measurement": "proteasomal CT-like activity in treated cells", "setting": "[6]; [9]", "result": "showed inhibition"},
      {"measurement": "caspase 3/7 activity, induction", "setting": "[7]", "result": 6, "unit": "fold"}
    ]},
    {"smiles": "O=C(O[C@@H]1Cc2c(O)cc(O)cc2O[C@@H]1c1cc(O)c(O)c(O)c1)c1ccc(F)cc1", "note": "[F-EGCG3]", "values": [
      {"measurement": "IC50", "setting": "[1]", "result": 1900, "unit": "nM"}
    ]},
    {"smiles": "CC(=O)Oc1cc(OC(C)=O)c2c(c1)O[C@H](c1cc(OC(C)=O)c(OC(C)=O)c(OC(C)=O)c1)[C@H](OC(=O)c1cccc(F)c1)C2", "note": "[Pro-F-EGCG2, (-)-(2R, 3R)-5,7-Diacetoxy-2-(3,4,5-triacetoxyphenyl)chroman-3-yl 3-fluorobenzoate]", "values": [
      {"measurement": "cell death (dead cells over total cell population)", "setting": "[2]", "result": 90, "unit": "%"}
    ]},
    {"smiles": "O=C(O[C@@H]1Cc2c(O)cc(O)cc2O[C@@H]1c1cc(O)c(O)c(O)c1)c1ccc(F)c(F)c1", "note": "[F-EGCG4]", "values": [
      {"measurement": "IC50", "setting": "[1]", "result": 650, "unit": "nM"}
    ]},
    {"smiles": "O=C(O[C@@H]1Cc2c(O)cc(O)cc2O[C@@H]1c1cc(O)c(O)c(O)c1)c1ccccc1F", "note": "[F-EGCG1, (-)-(2R, 3R)-5,7-dihydroxy-2-(3,4,5-trihydroxyphenyl)chroman-3-yl 2-fluorobenzoate]", "values": [
      {"measurement": "IC50", "setting": "[1]", "result": 1250, "unit": "nM"}
    ]},
    {"smiles": "CC(=O)Oc1cc(OC(C)=O)c2c(c1)O[C@H](c1cc(OC(C)=O)c(OC(C)=O)c(OC(C)=O)c1)[C@H](OC(=O)c1ccc(F)cc1)C2", "note": "[Pro-F-EGCG3, (-)-(2R, 3R)-5,7-Diacetoxy-2-(3,4,5-triacetoxyphenyl)chroman-3-yl 4-fluorobenzoate]", "values": [
      {"measurement": "cell death (dead cells over total cell population)", "setting": "[2]", "result": 30, "unit": "%"}
    ]},
    {"smiles": "CC(=O)Oc1cc(OC(C)=O)c2c(c1)O[C@H](c1cc(OC(C)=O)c(OC(C)=O)c(OC(C)=O)c1)[C@H](OC(=O)c1ccccc1F)C2", "note": "[Pro-F-EGCG1, (-)-(2R, 3R)-5,7-Diacetoxy-2-(3,4,5-triacetoxyphenyl)chroman-3-yl 2-fluorobenzoate]", "values": [
      {"measurement": "cell death (dead cells over total cell population)", "setting": "[2]", "result": 44, "unit": "%"}
    ]},
    {"smiles": "O=C(O[C@@H]1Cc2c(O)cc(O)cc2O[C@@H]1c1cc(O)c(O)c(O)c1)c1cccc(F)c1", "note": "[F-EGCG2]", "values": [
      {"measurement": "IC50", "setting": "[1]", "result": 840, "unit": "nM"}
    ]},
    {"smiles": "CC(=O)Oc1cc(OC(C)=O)c2c(c1)O[C@H](c1cc(OC(C)=O)c(OC(C)=O)c(OC(C)=O)c1)[C@H](OC(=O)c1ccc(F)c(F)c1)C2", "note": "[Pro-F-EGCG4, (-)-(2R,3R)-5,7-Diacetoxy-2-(3,4,5-triacetoxyphenyl)chroman-3-yl 3,4-difluorobenzoate]", "values": [
      {"measurement": "cell death (dead cells over total cell population)", "setting": "[2]", "result": 90, "unit": "%"},
      {"measurement": "PARP cleavage fragment p85, Western blot", "setting": "[5]; [8]", "result": "detected"},
      {"measurement": "p56 IκB-α (ubiquitinated form), Western blot", "setting": "[5]; Jurkat T cells, 4 or 8 h", "result": "induced the appearance"},
      {"measurement": "p56 IκB-α (ubiquitinated form), Western blot", "setting": "[5]; Jurkat T cells, 24 h", "result": "not detected"},
      {"measurement": "accumulation of ubiquitinated proteins, Western blot", "setting": "[5]; 24 h", "result": "caused accumulation of ubiquitinated proteins in a dose-dependent manner"},
      {"measurement": "proteasomal CT-like activity in treated cells", "setting": "[6]; [8]", "result": "decreased level"},
      {"measurement": "proteasomal CT-like activity in treated cells", "setting": "[6]; [9]", "result": "inhibited the proteasomal CT-like activity in a dose-dependent manner"}
    ]}
  ]
}
